According to patent US5432064A, “Process for dephosphorylating linear polynucleotide substrate with prosphatase form aspergillus niger” (Board of Regents of the University of Nebraska, priority 1992, dated 1995):

Test system: Aspergillus niger heat-labile phosphatase (4-nitrophenylphosphatase), purified, strain NRRL-3
Assay: A. niger phosphatase activity assay with 4-NPP as substrate (formation of p-nitrophenol at 400 nm)
Type: biochemical
Procedure: A. niger phosphatase activity was routinely determined by monitoring, in a spectrophotometer set at an absorbance wavelength of 400 nm, the formation of p-nitrophenol generated by the hydrolysis of 4-NPP (purchased from Calbiochem). Non-enzymatic hydrolysis controls were routinely included. The phosphatase assay contained the following in a total volume of 1.0 ml: 8 mM 4-NPP; 25 mM Tris-HCl (pH 8.0); and 5 mM MgCl2. The reaction, which was initiated by addition of the crude, mycelium-free supernatant fluid mentioned above, was carried out at 30° C. in a Varian DMS 70 spectrophotometer with a wavelength bandpass of 2 nanometers. Molar absorptivity of 4-nitrophenol at pH 8.0 was 1.62×10^4 M^-1 cm^-1.
To further examine one of these potential substrates at a greater level of sensitivity, the enzyme was incubated with [gamma-^32 P]ATP under identical conditions and assayed for the liberation of ^32 Pi. No liberation above background was detected and hydrolysis of ATP appeared to occur at a rate less than one/ten-millionth of that observed with 4-NPP.
Prospective inhibitors were added to the standard assay with 4-NPP as substrate and inhibition was monitored and expressed as percent inhibition of the untreated sample (TABLE 3).

[1] = 1 mM inhibitor, incubated with the phosphatase for 15 minutes at room temperature prior to assay, 4-NPP as substrate
[2] = 1 mM inhibitor, standard assay with 4-NPP as substrate
[3] = 10 mM inhibitor, standard assay with 4-NPP as substrate

`CCN1C(=O)C=CC1=O` [N-ethylmaleimide] was tested, and the “Inhibition (%)” value [1] was 75%.

For `[F-].[Na+]` [sodium fluoride], the “Inhibition (%)” value [2] was 22% and the “Inhibition (%)” value [3] was 80%.

Work on `Nc1ncnc2c1ncn2[C@@H]1O[C@H](COP(=O)(O)OP(=O)(O)OP(=O)(O)O)[C@@H](O)[C@H]1O` [ATP, adenosine triphosphate] yielded a Ki (competitive inhibition of hydrolysis of 4-NPP, read-out: Ki for ATP) of 1300 µM.

For `O=P(O)(O)OP(=O)(O)O` [PPi, inorganic pyrophosphate], the “Inhibition (%)” value [2] was 4% and the “Inhibition (%)” value [3] was 56%.

In the case of `O=C(O)CI` [iodoacetate], the “Inhibition (%)” value [1] is reported as 96%.

With `O=P(O)(O)O` [orthophosphate] the “Inhibition (%)” value [3] was 39%.
